The text below walks through data of paper PMC9768625, “Is the vesicular nucleotide transporter a molecular target of eicosapentaenoic acid?” (Frontiers in Pharmacology, 2022).

The target in the experiment is T1, V-ATPase (vacuolar H^+-ATPase), purified from chromaffin granules (Bos taurus, UniProt P23956+Q29466).
T1 construct: gene ATP6V0C; purified chromaffin granule V-ATPase in reconstituted proteoliposomes (multi-subunit complex; subunits A, B and c indicated)
Description: colorimetric Mg-ATPase (Pi release) assay of proteoliposomes containing purified V-ATPase, con B at […]. The experiment is classed as biochemical. Particulars: proteoliposomes with purified v-atpase.

With `C/C=C/[C@H]1O[C@@](O)([C@@H](C)[C@H](O)[C@H](C)[C@H]2OC(=O)/C(OC)=C/C(C)=C/[C@@H](C)[C@@H](O)[C@@H](C)[C@@H](O)[C@H](C)C/C(C)=C/C=C/[C@@H]2OC)C[C@@H](O[C@H]2C[C@@H](O)[C@H](OC(N)=O)[C@@H](C)O2)[C@@H]1C` [con B, concanamycin B], the “% of ATPase activity sensitive at 1 μM” value was > 95 % of ATPase activity sensitive at 1 μM.
